Results reported in US20120178666A1 (SHIRE LLC, priority 2009, published 2012).
Counter-ions that a name gives are not always drawn. Like-named read-outs stand apart in the source and are kept apart here.

Key:
[1] = Prodrug stability in simulated intestinal fluid (USP); conditions: 37° C.
Method: (§1) The remaining concentrations of the prodrugs were then assayed by HPLC.

gut motility = assay: Charcoal propulsion test (gut motility); assay type: in vivo, rat; conditions: Rattus norvegicus, po, read-out: % inhibition of GIT transit compard to vehicle
Method: The effect of a drug on gut motility can be studied by means of the charcoal propulsion test.
The method used was based on that described by Takemori et al. (J. Pharmacol. Exp. Ther. 169:39, 1969). Test treatments were administered orally 60 minutes prior to an oral dose of a 10% suspension of charcoal in 2.5% gum Arabic (2 ml/kg). Twenty minutes after dosing with charcoal, the rats were sacrificed and the entire gastrointestinal tract was removed quickly and carefully. The distance that the charcoal meal had travelled toward the caecum was measured and expressed as a percentage of the total gut length.

[2] = Prodrug stability in simulated gastric fluid (USP); conditions: 37° C.
Method: as §1

[3] = Comparative bioavailability study of guanfacine in monkeys (full pharmacokinetics); assay type: in vivo, cynomolgus monkey; conditions: oral gavage, monkey
Method: The characteristics of the test animals are set out in Table 13.
The following pharmacokinetic parameters derived from the plasma analytical data were determined using Win Nonlin;

[4] = Comparative pharmacokinetic screening study of guanfacine prodrugs in the monkey; conditions: oral gavage
Method: Blood samples were taken on 4 sampling occasions at various times up to 6 hours after administration and submitted to analysis for the parent drug and prodrug using a qualified LC-MS-MS assay.

[5] = Comparative bioavailability study in monkeys in the fasted or fed state; assay type: in vivo, cynomolgus monkey; conditions: Fasted, 0.5 mg/kg guanfacine equivalent, oral
Method: Five male cynomolgus monkeys were used. Food was withdrawn from animals in fasted groups from the evening of the day prior to dosing until approximately 4 hours after dosing.
The formulations were prepared on the day of dosing and administered orally as soon as practicable up to a maximum of 2 hours after formulation.
Blood samples (0.5 mL) were collected from all animals pre-dose and at 0.5, 1, 2, 3, 4, 6, 8 10, 12, 16 and 24 hours after dosing.
Following processing, the resultant plasma was frozen and analysed by a qualified method. Pharmacokinetic evaluation was performed using a validated pharmacokinetic software package.

[6] = Study 1, oral dose 0.1 mg/kg guanfacine free base equivalents
[7] = Study 1, oral dose 0.3 mg/kg guanfacine free base equivalents
[8] = Study 1, oral dose 1 mg/kg guanfacine free base equivalents
[9] = Study 1, oral dose 3 mg/kg guanfacine free base equivalents
[10] = Study 1, oral dose 5 mg/kg guanfacine free base equivalents

SMILES	% prodrug remaining following incubation for: 2 h in simulated intestinal fluid pH 6.8 [1]	% prodrug remaining following incubation for: 1 h in simulated gastric fluid pH 1.1 [2]	other results
CC(C)[C@H](NC(=O)CCCC(=O)NC(=N)NC(=O)Cc1c(Cl)cccc1Cl)C(=O)O [Compound 1, guanfacine-[glutaryl-(S)-valine] amide trifluoroacetate]	92%	80%	inhibition at 0.1 mg/kg (gut motility): 9%; inhibition at 0.3 mg/kg (gut motility): 6%; inhibition at 1 mg/kg (gut motility): 45%; inhibition at 3 mg/kg (gut motility): 50%; inhibition at 5 mg/kg (gut motility): 53%; plasma guanfacine profile (in words) [3]: sustained guanfacine concentrations
CC(C)[C@H](N)C(=O)NCCC(=O)NC(=N)NC(=O)Cc1c(Cl)cccc1Cl [Compound 2, guanfacine-β-alanine-(S)-valine amide di-trifluoroacetate]	89%	75%	prodrug levels in plasma (in words) [4]: detectable prodrug levels in plasma; mean Cmax (ng/mL) prodrug [5]: BLQ; inhibition at 0.1 mg/kg (gut motility; [6]): -3%; inhibition at 0.3 mg/kg (gut motility; [7]): 30%; inhibition at 1 mg/kg (gut motility; [8]): 42%; inhibition at 3 mg/kg (gut motility; [9]): 42%; inhibition at 5 mg/kg (gut motility; [10]): 42%
CC(C)[C@@H](N)C(=O)N[C@@H](CCC(=O)NC(=N)NC(=O)Cc1c(Cl)cccc1Cl)C(=O)O [Compound 5, guanfacine-γ-(S)-glutamic acid-(R)-valine amide di-trifluoroacetate]	89%	86%	inhibition at 0.1 mg/kg (gut motility; [6]): 6%; inhibition at 0.3 mg/kg (gut motility; [7]): 22%; inhibition at 1 mg/kg (gut motility; [8]): 48%; inhibition at 1.7 mg/kg (gut motility; Study 1, oral dose 1.7 mg/kg guanfacine free base equivalents): 50%; inhibition at 3 mg/kg (gut motility; [9]): 44%; inhibition at 5 mg/kg (gut motility; [10]): 42%; plasma guanfacine profile (in words) [3]: sustained guanfacine concentrations
CN(CC(=O)O)C(=O)NC(=N)NC(=O)Cc1c(Cl)cccc1Cl [Compound 9, Guanfacine Sarcosine Urea]	–	–	prodrug levels in plasma (in words) [4]: high prodrug levels
CC(C)[C@@H](N)C(=O)NCCC(=O)NC(=N)NC(=O)Cc1c(Cl)cccc1Cl [Compound 11, Guanfacine β-Alanine-(R)-Valine Amide]	–	79%	prodrug levels in plasma (in words) [4]: detectable prodrug levels in plasma
CC(C)[C@H](N)C(=O)N[C@@H](COC(=O)NC(=N)NC(=O)Cc1c(Cl)cccc1Cl)C(=O)O [Compound 17, (S)-Valine-(S)-Serine(Guanfacine) Carbamate]	78%	93%	prodrug levels in plasma (in words) [4]: total absence of prodrug in the plasma
O=C(O)CC[C@@H]1N=C(NC(=O)Cc2c(Cl)cccc2Cl)NC1=O [Compound 37, Guanfacine-(S)-Glutamic Cyclic adduct]	110%	58%	prodrug levels in plasma (in words) [4]: high prodrug levels
C[C@@H](N)C(=O)N[C@@H](CCC(=O)NC(=N)NC(=O)Cc1c(Cl)cccc1Cl)C(=O)O [Compound 41, (R)-Alanine-(S)-γ-Glutamate(Guanfacine) Amide]	83%	70%	prodrug levels in plasma (in words) [4]: detectable prodrug levels in plasma
N=C(NC(=O)CC[C@H](NC(=O)[C@H](N)CCC(N)=O)C(=O)O)NC(=O)Cc1c(Cl)cccc1Cl [Compound 46, (R)-Glutamine-(S)-γ-Glutamate(Guanfacine) Amide]	81%	61%	–
N=C(NC(=O)CC[C@H](NC(=O)[C@H](N)CO)C(=O)O)NC(=O)Cc1c(Cl)cccc1Cl [Compound 47, (R)-Serine-(S)-γ-Glutamate(Guanfacine) Amide]	89%	72%	–
CCC(C)[C@@H](N)C(=O)NCCCC(=O)NC(=N)NC(=O)Cc1c(Cl)cccc1Cl (stereo partly drawn) [Compound 50, Guanfacine (GABA-(R)-Isoleucine) Amide]	81%	85%	–
N=C(NC(=O)Cc1c(Cl)cccc1Cl)NC(=O)c1ccc(N)cc1 [Compound 52, Guanfacine PABA Amide]	97%	84%	–
CC(C)[C@@H](N)C(=O)N[C@@H](C(=O)NC(=N)NC(=O)Cc1c(Cl)cccc1Cl)C(C)C [Compound 54, Guanfacine (R)-Valine-(R)-Valine Amide]	66%	73%	–

Continued, in another order:

% prodrug remaining following incubation for: 2 h in simulated intestinal fluid pH 6.8 [1]	% prodrug remaining following incubation for: 1 h in simulated gastric fluid pH 1.1 [2]	SMILES	other results
91%	65%	CC(C)[C@@H](NC(=O)c1ccc(N)cc1)C(=O)NC(=N)NC(=O)Cc1c(Cl)cccc1Cl [Compound 55, Guanfacine (R)-Valine-PABA Amide]	–
99%	96%	N=C(NC(=O)Cc1c(Cl)cccc1Cl)NC(=O)OCCNC(=O)CC[C@H](N)C(=O)O [Compound 58, Guanfacine (ethanolamine-(S)-γ-Glutamate) Carbamate]	–
100%	92%	CC[C@H](C)[C@H](N)C(=O)NCCOC(=O)NC(=N)NC(=O)Cc1c(Cl)cccc1Cl [Compound 59, Guanfacine (ethanolamine-(S)-Isoleucine) Carbamate]	–
97%	81%	N=C(NC(=O)CC[C@H](NC(=O)c1ccc(C(=O)O)cc1)C(=O)O)NC(=O)Cc1c(Cl)cccc1Cl [Compound 60, Terephthalic acid-(S)-γ-Glutamate(Guanfacine) Amide]	–
93%	88%	N=C(NC(=O)Cc1c(Cl)cccc1Cl)NC(=O)OC[C@H](NC(=O)CCN)C(=O)O [Compound 64, β-Alanine-(S)-Serine (Guanfacine) Carbamate]	–
99%	90%	N=C(NC(=O)Cc1c(Cl)cccc1Cl)NC(=O)OCC[C@H](N)C(=O)O [Compound 65, (S)-Homoserine Guanfacine Carbamate]	–
97%	99%	N=C(NC(=O)Cc1c(Cl)cccc1Cl)NC(=O)OCC[C@H](NC(=O)CCN)C(=O)O [Compound 67, β-Alanine-(S)-Homoserine (Guanfacine) Carbamate]	–
75%	86%	CC(C)(COC(=O)NC(=N)NC(=O)Cc1c(Cl)cccc1Cl)[C@@H](O)C(=O)NCCC(=O)O [Compound 68, Guanfacine Pantothenic acid Carbamate]	–
96%	85%	CC(C)(CO)[C@@H](O)C(=O)NCCCOC(=O)NC(=N)NC(=O)Cc1c(Cl)cccc1Cl [Compound 69, Guanfacine Panthenol Carbamate]	–
93%	64%	N=C(NC(=O)CC[C@H](NC(=O)c1ccc(N)cc1)C(=O)O)NC(=O)Cc1c(Cl)cccc1Cl [Compound 70, Guanfacine PABA-(S)-Glutamate (Guanfacine) Amide]	–
89%	91%	CNCC(=O)NCCOC(=O)NC(=N)NC(=O)Cc1c(Cl)cccc1Cl [Compound 71, Guanfacine ethanolamine-Sarcosine Carbamate]	–
